Earlier results in paper PMC10458698, “Characterization of the interferences of systemic azole antifungal drugs with adrenal steroid biosynthesis using H295R cells and enzyme activity assays” (Current Research in Toxicology, 2023).

Key:
CYP11B1 = test system: CYP11B1; design: method as in Beck et al., 2020a; settings: ref Beck et al., 2020a; cited from earlier work
[1] = design: method as in Nguyen et al., 2020; settings: ref Nguyen et al., 2020; cited from earlier work
CYP11A1 = biological target: T1, CYP11A1 (Homo sapiens, UniProt P05108); design: method as in Mast et al., 2013, Vanden Bossche et al., 1986; settings: in words, ref Mast et al., 2013, Vanden Bossche et al., 1986; cited from earlier work
T1 construct: host or cells: V79-4 cells (Chinese hamster), transient transfection, mitochondrial fraction
T1 sequence (P05108 40-521): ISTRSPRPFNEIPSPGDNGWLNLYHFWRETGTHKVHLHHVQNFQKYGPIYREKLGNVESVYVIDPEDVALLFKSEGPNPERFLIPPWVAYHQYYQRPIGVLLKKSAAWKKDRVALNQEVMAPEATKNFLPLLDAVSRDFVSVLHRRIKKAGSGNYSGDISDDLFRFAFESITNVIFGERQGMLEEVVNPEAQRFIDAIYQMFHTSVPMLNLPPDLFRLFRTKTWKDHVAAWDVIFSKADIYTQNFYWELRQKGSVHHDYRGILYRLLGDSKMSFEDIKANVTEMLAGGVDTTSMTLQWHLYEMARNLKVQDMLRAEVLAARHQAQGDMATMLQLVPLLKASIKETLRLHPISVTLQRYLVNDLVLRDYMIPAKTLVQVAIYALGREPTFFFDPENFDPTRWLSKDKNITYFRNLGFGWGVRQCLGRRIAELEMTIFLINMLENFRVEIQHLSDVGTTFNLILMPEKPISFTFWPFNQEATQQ

SMILES | IC50 (CYP11B1) [nM] | serum concentration with increased risk of pseudohyperaldosteronism [1] [ng/mL] | CYP11A1 inhibition in earlier studies (CYP11A1)
CC[C@@H]([C@H](C)O)n1ncn(-c2ccc(N3CCN(c4ccc(OC[C@@H]5CO[C@@](Cn6cncn6)(c6ccc(F)cc6F)C5)cc4)CC3)cc2)c1=O [posaconazole, Posaconazole] | 60 | > 2500 | moderate CYP11A1 inhibition
CCC(C)n1ncn(-c2ccc(N3CCN(c4ccc(OCC5COC(Cn6cncn6)(c6ccc(Cl)cc6Cl)O5)cc4)CC3)cc2)c1=O (stereo not drawn) [itraconazole] | 440 | – | no substantial inhibition
C[C@@H](c1nc(-c2ccc(C#N)cc2)cs1)[C@](O)(Cn1cncn1)c1cc(F)ccc1F [isavuconazole] | 3000 | – | –
